Data reported in patent publication US7199128B2, “8-N-substituted-2H-isothiazolo[5,4-b]quinolizine-3,4-diones and related compounds as antiinfective agents” (Achillion Pharmaceuticals, Inc., priority 2005, dated 2007).
pIC50: −log10 of the molar value. In brackets after ≈: the same amount, converted by molar mass. Read-outs that look alike come from different tables or passages of the source.

Experiments:
[1] = Cell viability staining with Alamar Blue (cytotoxicity); assay type: cell-based; conditions: human, HEP 2 (laryngeal carcinoma) cells; HEP 2 cells, positive control
Description: (§2) Optimal cell density is first determined by plating cells in a 96-well plate standard sterile tissue culture plates in 100 μl media, 10%FBS at six cell densities from 500 cells/well to 15,000 cells/well. A cell free well containing only media is used as a control. Cells are incubated at 37° C. in a 5% CO2 incubator for 24 hours. 10% culture volume (10 microliters) of Alamar Blue (Biosource, DAL1100, 100 ml) is then added. Cells are incubated at 37° C. in a 5% CO2 incubator and read in a Victor V plate reader, 544 nm excitation, 590 nm emission, at 3, 4, and 24 hours after the addition of Alamar Blue. The cell number vs. change in fluorescence is plotted to determine linearity of signal vs. cell number. The optimal density varies between 500–15,000 cells/well depending on the specific cell type. The optimal density is selected based on the highest number of cells that is still in the linear response range. Determination of Compound Cytotoxicity Cells are plated at optimal cell density in a standard sterile tissue culture 96 well plate, and incubated at 37° C. O/N in a 5% CO2 incubator. 12 to 48 hours post-plating media is removed. […] Plates are incubated 4 hours at 37° C. in a 5% CO2 incubator and read in a Victor V plate reader, 544 nm excitation, 590 nm emission. […] The change in fluorescence vs. concentration of test compound is plotted to determine the cytotoxicity of the compound.

[2] = as above; assay type: cell-based; conditions: Chinese hamster, CHO (Chinese hamster ovary) cells, positive control
Description: as §2

[3] = test system: S. aureus ATCC 29213; assay: Minimum inhibitory concentration (MIC) assay, broth microdilution; assay type: cell-based; conditions: Staphylococcus aureus, ATCC29213; against S. aureus; visible growth after 18–24 h at 37° C.
Description: (§1) The antimicrobial activity of the compounds of the invention may be evaluated by a number of methods, including the following visual minimum inhibitory concentration (MIC) assay. This assay determines the minimum concentration of compound required to inhibit growth of a bacterial strain. Minimum Inhibitory Concentration (MIC) Assay Whole-cell antibacterial activity is determined by broth microdilution using conditions recommended by the National Committee for Clinical Laboratory Standards (NCCLS). […] Test compounds are dissolved in DMSO and diluted 1:50 in Mueller-Hinton II broth (Becton-Dickinson) to produce a 256 μg/ml stock solution. In a 96-well microtiter plate, the compound solution is serially two-fold diluted in Mueller-Hinton II broth. After the compounds are diluted, a 50 μl aliquot of the test organism (˜1×10^6 cfu/mL) is added to each well of the microtiter plate. The final test concentrations range from 0.125–128 μg/mL. Inoculated plates are incubated in ambient air at 37° C. for 18 to 24 hours. The organisms selected for testing included laboratory strains S. aureus ATCC 29213 and E. coli ATCC 25922 (strains purchased from American Type Culture Collection, Manassas, Va.). The minimum inhibitory concentration (MIC) was determined as the lowest concentration of compound that inhibited visible growth of the test organism.

[4] = test system: E. coli ATCC 25922; assay: as above; assay type: cell-based; conditions: Escherichia coli, ATCC25922; against E. coli; visible growth after 18–24 h at 37° C.
Description: as §1

[5] = biological target: T1, E. coli DNA gyrase (Escherichia coli, UniProt P0AES4+P0AES6); assay: DNA gyrase supercoiling assay; assay type: biochemical; conditions: read-out: inhibition of E. coli DNA gyrase supercoiling IC50
T1 construct: made in house; host or cells: E. coli
Description: Enzyme activity is measured by a supercoiling assay that monitors the ATP-dependent conversion of relaxed pBR322 DNA to the supercoiled form. Analysis is done by gel electrophoresis through 1% agarose/TBE gel. DNA is visualized with an Alpha Imager 2200 Analysis System and the IC50 determined by nonlinear regression analysis with Graphpad Prism software. E. coli DNA gyrase enzyme subunits, gyrA and gyrB, are purified to homogeneity from over-expression constructs in E. coli.

[6] = biological target: T2, S. aureus topoisomerase IV (Staphylococcus aureus, UniProt P0C1S7+P0C1U9); assay: Topoisomerase IV decatenation assay; assay type: biochemical
T2 construct: made in house; host or cells: E. coli
Description: Topoisomerase IV Activity
Enzyme activity is measured by a decatenation assay that monitors the ATP-dependent unlinking of DNA minicircles from kinetoplast DNA. Analysis is done by gel electrophoresis through 1% agarose/TBE gel. DNA is visualized with an Alpha Imager 2200 Analysis System and the IC50 determined by nonlinear regression analysis with Graphpad Prism software. S. aureus topoismerase IV enzyme subunits, grlA and grlB, are purified to homogeneity from over-expression plasmids in E. coli.

[7] = biological target: S. aureus DNA gyrase (Staphylococcus aureus, UniProt P0A0K8+P20831); assay: DNA gyrase supercoiling assay; assay type: biochemical
Sequence of S. aureus DNA gyrase (P20831 whole entry): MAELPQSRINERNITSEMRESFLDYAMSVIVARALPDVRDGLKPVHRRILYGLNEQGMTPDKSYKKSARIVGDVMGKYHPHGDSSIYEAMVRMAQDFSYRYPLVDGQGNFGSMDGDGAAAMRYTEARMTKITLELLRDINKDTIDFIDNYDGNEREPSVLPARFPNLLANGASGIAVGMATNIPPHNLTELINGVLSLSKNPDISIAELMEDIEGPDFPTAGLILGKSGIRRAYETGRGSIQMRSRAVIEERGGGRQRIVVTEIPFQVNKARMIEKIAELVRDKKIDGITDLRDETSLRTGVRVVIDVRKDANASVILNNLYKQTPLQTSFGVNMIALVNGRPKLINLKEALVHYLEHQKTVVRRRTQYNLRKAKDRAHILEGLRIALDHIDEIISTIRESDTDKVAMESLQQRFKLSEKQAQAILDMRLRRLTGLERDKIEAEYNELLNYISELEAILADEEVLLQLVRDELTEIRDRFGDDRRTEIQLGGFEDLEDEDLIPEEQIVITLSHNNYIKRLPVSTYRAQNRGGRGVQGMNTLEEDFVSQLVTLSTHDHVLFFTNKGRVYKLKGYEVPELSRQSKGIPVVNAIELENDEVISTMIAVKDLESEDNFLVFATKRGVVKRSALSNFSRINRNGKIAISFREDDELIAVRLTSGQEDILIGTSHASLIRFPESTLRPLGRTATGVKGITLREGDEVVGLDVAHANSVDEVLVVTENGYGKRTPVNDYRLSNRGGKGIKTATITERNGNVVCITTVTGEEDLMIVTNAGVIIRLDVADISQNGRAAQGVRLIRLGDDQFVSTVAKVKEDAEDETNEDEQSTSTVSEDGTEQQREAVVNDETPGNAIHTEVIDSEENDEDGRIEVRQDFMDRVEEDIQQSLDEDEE
Sequence of S. aureus DNA gyrase (P0A0K8 whole entry): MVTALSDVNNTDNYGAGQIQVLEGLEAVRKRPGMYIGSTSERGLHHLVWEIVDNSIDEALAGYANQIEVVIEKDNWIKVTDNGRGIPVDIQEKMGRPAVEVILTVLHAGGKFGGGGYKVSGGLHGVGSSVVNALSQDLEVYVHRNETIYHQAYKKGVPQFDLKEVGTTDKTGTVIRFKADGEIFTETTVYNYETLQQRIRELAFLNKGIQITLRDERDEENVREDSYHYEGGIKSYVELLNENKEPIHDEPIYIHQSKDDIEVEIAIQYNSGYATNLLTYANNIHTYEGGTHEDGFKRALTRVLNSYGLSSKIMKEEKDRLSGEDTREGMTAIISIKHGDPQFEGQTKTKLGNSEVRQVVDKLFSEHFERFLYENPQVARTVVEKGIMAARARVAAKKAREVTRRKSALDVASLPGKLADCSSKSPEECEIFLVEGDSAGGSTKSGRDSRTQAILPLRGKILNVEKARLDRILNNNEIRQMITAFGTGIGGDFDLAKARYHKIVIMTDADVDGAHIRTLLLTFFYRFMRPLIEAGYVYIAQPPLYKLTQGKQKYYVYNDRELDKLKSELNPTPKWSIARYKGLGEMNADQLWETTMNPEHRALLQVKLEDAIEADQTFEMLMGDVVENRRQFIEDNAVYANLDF

T2 sequence (P0C1U9 whole entry): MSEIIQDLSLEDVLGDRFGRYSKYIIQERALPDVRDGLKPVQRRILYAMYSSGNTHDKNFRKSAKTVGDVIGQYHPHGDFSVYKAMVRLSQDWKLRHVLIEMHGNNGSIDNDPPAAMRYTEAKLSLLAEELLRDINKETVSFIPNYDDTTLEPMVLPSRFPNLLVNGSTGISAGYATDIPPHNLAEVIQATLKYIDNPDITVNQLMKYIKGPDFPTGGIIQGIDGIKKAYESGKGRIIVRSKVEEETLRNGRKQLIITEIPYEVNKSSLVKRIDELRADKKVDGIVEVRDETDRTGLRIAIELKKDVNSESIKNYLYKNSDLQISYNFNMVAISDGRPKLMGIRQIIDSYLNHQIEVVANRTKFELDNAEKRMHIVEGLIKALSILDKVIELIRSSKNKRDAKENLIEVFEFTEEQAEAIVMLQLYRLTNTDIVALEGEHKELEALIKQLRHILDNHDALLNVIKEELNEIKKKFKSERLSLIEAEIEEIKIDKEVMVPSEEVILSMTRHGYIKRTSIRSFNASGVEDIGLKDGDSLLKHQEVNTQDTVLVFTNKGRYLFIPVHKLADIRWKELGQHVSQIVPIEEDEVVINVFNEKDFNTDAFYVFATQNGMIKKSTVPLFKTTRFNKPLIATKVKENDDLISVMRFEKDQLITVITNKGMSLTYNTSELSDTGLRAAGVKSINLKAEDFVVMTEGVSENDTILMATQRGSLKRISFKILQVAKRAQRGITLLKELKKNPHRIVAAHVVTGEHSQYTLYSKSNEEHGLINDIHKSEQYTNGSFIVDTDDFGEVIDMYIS
T2 sequence (P0C1S7 whole entry): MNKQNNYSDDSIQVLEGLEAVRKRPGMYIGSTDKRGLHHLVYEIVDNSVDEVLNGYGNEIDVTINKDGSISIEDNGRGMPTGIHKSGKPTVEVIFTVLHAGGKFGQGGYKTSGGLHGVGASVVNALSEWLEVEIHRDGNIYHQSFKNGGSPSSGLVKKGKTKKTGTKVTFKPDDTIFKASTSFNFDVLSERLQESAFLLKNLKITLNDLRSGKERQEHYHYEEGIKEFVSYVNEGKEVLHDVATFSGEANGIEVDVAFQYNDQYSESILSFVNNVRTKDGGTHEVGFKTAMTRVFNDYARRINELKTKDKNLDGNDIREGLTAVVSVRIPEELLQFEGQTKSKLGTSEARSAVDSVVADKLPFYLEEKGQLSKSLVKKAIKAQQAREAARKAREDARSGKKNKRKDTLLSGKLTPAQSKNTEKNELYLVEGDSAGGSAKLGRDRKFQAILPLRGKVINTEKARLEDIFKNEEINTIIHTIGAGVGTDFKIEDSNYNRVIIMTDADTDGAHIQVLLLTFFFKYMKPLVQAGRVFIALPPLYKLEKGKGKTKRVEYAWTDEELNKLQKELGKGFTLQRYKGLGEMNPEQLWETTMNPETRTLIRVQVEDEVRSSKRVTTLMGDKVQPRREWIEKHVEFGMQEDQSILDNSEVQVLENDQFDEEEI
T1 sequence (P0AES4 whole entry, one chain of several): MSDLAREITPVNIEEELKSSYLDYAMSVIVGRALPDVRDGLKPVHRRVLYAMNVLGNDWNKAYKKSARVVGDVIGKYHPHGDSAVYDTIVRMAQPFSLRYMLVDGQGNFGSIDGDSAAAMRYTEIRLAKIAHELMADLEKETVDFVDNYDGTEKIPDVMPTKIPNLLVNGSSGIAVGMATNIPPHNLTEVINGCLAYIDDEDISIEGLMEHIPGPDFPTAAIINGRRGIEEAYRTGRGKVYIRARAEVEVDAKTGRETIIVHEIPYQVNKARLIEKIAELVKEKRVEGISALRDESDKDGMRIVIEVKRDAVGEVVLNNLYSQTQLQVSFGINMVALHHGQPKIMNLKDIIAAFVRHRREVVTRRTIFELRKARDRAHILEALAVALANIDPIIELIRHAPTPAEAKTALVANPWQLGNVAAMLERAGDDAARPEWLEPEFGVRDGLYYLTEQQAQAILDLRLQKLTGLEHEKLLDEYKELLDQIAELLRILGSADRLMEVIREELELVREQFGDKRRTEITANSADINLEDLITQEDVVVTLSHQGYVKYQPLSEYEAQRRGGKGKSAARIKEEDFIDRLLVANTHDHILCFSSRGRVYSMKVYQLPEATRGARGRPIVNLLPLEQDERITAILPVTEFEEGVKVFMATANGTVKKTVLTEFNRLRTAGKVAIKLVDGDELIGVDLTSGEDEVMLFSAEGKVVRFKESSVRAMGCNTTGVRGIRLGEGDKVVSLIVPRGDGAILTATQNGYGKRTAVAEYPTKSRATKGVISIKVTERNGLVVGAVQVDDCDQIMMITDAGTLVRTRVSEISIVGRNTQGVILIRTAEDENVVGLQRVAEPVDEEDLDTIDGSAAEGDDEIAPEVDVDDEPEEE

Molecule `CC(C)(C)c1ccc(C(O)CCCN2CCC(C(O)(c3ccccc3)c3ccccc3)CC2)cc1` (stereo not drawn) [Terfenadine] has a CC50 [1] of 3 to 5 µM and a CC50 [2] of 4.3 to 6.5 µM.

In the case of `CCc1c2s[nH]c(=O)c2c(=O)n2ccc(N3CCC(N(C)C)C3)cc12` (racemic) [Compound 7, 8-(3-(dimethylamino)pyrrolidin-1-yl)-10-ethyl-2H-isothiazolo[5,4-b]quinolizine-3,4-dione], the MIC [3] was 10 µg/mL (≈ 27.9 µM), the MIC [4] was 10 µg/mL (≈ 27.9 µM) and the pIC50 [5] was over 6.00. The pIC50 [6] was over 5.00.

With `O=c1[nH]sc2c(C3CC3)c3cc(N4CC(O)C4)c(F)cn3c(=O)c12` [Compound 9, 10-cyclopropyl-7-fluoro-8-(3-hydroxyazetidin-1-yl)-2H-isothiazolo[5,4-b]quinolizine-3,4-dione] the pIC50 [7] was under 3.70.

Work on `CCc1c2s[nH]c(=O)c2c(=O)n2ccc(N3CCNCC3)cc12` [Compound 8, 10-ethyl-8-(piperazin-1-yl)-2H-isothiazolo[5,4-b]quinolizine-3,4-dione] yielded a pIC50 [7] of under 3.70, an MIC [3] of 10 µg/mL (≈ 30.3 µM) and an MIC [4] of 10 µg/mL (≈ 30.3 µM). For the same molecule, the pIC50 [5] was over 6.00 and the pIC50 ([6]; read-out: inhibition of S. aureus topoisomerase IV activity IC50) was over 5.00.
